Experimental data published in paper PMC13626384 (Journal of medicinal chemistry, 2025).
Read-outs that look alike come from different tables or passages of the source. Marks after values point to notes of the source that are not given here.

Assays:
D283-med cell line = test: Cytotoxicity against D283-med cells; assay type: cell-based, human
SF188 cell line = test: Cytotoxicity against SF188 cells; assay type: cell-based, human; conditions: Homo sapiens, SF-188, read-out: SF188 IC50, glioblastoma cell line
Plasma stability = assay type: in vitro ADME
Caco-2 cells = conditions: ref Literature data; cited from earlier work
in vitro = conditions: mouse liver microsomes
[1] = Liver microsomal stability; conditions: mouse liver microsomes
[2] = PAMPA-BBB permeability assay; conditions: PAMPA, PAMPA-BBB; for recovery: % Recovery; for Papp: Mean Permeability
[3] = Caco-2 cell permeability and efflux; assay type: in vitro ADME, human; conditions: human; for Papp A→B / Papp B→A: Caco-2
P-gp = test: Caco-2 cell permeability and efflux; assay type: in vitro ADME, human; conditions: human, Caco-2
[4] = target: human constitutive proteasome (c20S) β5 (Homo sapiens, UniProt P20618+P28074); test: Proteasome subunit inhibition, c20S β5; assay type: biochemical
[5] = target: human constitutive proteasome (c20S) β2 (Homo sapiens, UniProt P49720+Q99436); test: Proteasome subunit inhibition, c20S β2; assay type: biochemical
[6] = target: human constitutive proteasome (c20S) β1 (Homo sapiens, UniProt P28072+Q99436); test: Proteasome subunit inhibition, c20S β1; assay type: biochemical
[7] = target: human immunoproteasome (i20S) β5 (Homo sapiens, UniProt P20618+P28062); test: Proteasome subunit inhibition, i20S β5; assay type: biochemical
[8] = target: human immunoproteasome (i20S) β2 (Homo sapiens, UniProt P40306+P49720); test: Proteasome subunit inhibition, i20S β2; assay type: biochemical
[9] = target: human immunoproteasome (i20S) β1 (Homo sapiens, UniProt P28065+P40306); test: Proteasome subunit inhibition, i20S β1; assay type: biochemical
[10] = In vivo pharmacokinetics, plasma and brain; set-up: species or system Male C57BL/6 mice; conditions: mice
Whole blood stability = assay type: in vitro ADME; conditions: whole blood incubation, 2 hours
mice = test: Toxicity observation in the PK study; assay type: in vivo; conditions: 1 mg/kg i.v.
[11] = Homo sapiens, D283 Med, read-out: D283-med IC50, medulloblastoma cell line
[12] = Caco-2, % Recovery (A-B), Caco-2, A-B direction
[13] = Caco-2, % Recovery (B-A), Caco-2, B-A direction

| SMILES | IC50 (D283-med cell line; [11]) [nM] | IC50 (SF188 cell line) [nM] | half-life (in vitro) [min] | Microsomal Stability Clearance Category [1] | recovery [2] [%] | Papp [2] [×10⁻⁶ cm/s] | Papp A→B [3] [×10⁻⁶ cm/s] | Papp B→A [3] [×10⁻⁶ cm/s] | recovery [3, 12] [%] | recovery [3, 13] [%] | Efflux Ratio (P-gp) | IC50 [4] [nM] | IC50 [5] [nM] | IC50 [6] [nM] | IC50 [7] [nM] | IC50 [8] [nM] | IC50 [9] [nM] | further results |
| --- | --- | --- | --- | --- | --- | --- | --- | --- | --- | --- | --- | --- | --- | --- | --- | --- | --- | --- |
| CC(C)C[C@H](NC(=O)[C@H](CCc1ccccc1)NC(=O)CN1CCOCC1)C(=O)N[C@@H](Cc1ccccc1)C(=O)N[C@@H](CC(C)C)C(=O)[C@@]1(C)CO1 [Carfilzomib, reference compound] | 205 ± 24 | 706 ± 82 | < 5 | High | 41 | 1.43 | – | – | – | – | – | – | – | – | – | – | – | remaining at 2 h (Plasma stability; mouse, plasma, Plasma Stability % remaining, after 2 hr): 99%; Efflux Ratio (Caco-2 cells): 28.6* |
| CC(C)C[C@H](NC(=O)[C@@H]1CS(=O)(=O)CCCCCCCCCC(=O)N[C@@H](C(C)C)C(=O)N1)C(=O)[C@@]1(C)CO1 [Compound 40, (3R,6S)-6-Isopropyl-N-((S)-4-methyl-1-((R)-2-methyloxiran-2-yl)-1-oxopentan-2-yl)-5,8-dioxo-1-thia-4,7-diazacycloheptadecane-3-carboxamide 1,1-dioxide] | 2.3 | 6.7 ± 0.3 | < 5 | High | 77 | 3.34 | 10.1 | 48.8 | 91 | 89 | 4.8 | 7.5 ± 0.6 | 39.4 ± 6.3 | 767 ± 177 | 16 ± 2 | 23 ± 1.6 | 144 ± 9.2 | IC50 (D283-med cell line; read-out: D283-med IC50, medulloblastoma cell line): 2.26 ± 0.26 nM; Plasma Stability % remaining (Plasma stability; mouse plasma, after 2 hr): 94 after 2 hr %; remaining at 5 h (Plasma stability; mouse, plasma, Plasma Stability % remaining, after 5 hr): > 75%; Levels in brain tissues ([10]; 1 mg/kg i.v.): failed to achieve detectable levels; Plasma concentrations after dosing ([10]; 1 mg/kg i.v.): negligible plasma concentrations beyond 5 minutes post-dosing; Plasma concentrations after dosing ([10]; 10 mg/kg): did not exhibit significant plasma concentrations beyond 5 minutes post-administration; Whole blood retention (Whole blood stability): ~ 15%; Signs of toxicity (mice): lack of toxicity; microsomal CLint (in vitro): 323 µL/min/mg |
| CC(C)C[C@H](NC(=O)[C@@H]1CSCCOCCOCCC(=O)N[C@@H](C(C)C)C(=O)N1)C(=O)[C@@]1(C)CO1 [Compound 41, (9R,12S)-12-Isopropyl-N-((S)-4-methyl-1-((R)-2-methyloxiran-2-yl)-1-oxopentan-2-yl)-11,14-dioxo-1,4-dioxa-7-thia-10,13-diazacyclohexadecane-9-carboxamide] | 90 ± 8 | 113 ± 9 | – | – | 98 | 0.22 | 0.75 | 20.8 | 102 | 101 | 27.6 | 390 ± 50.7 | 110 ± 20.3 | 484 ± 33 | 4900 ± 2160 | 277 ± 49.1 | 49 ± 2.2 | – |
